Laboratory results published in patent EP3892267A1, “C[…] FOR LYMPHOMA” (Université de Paris, priority 2020, dated 2021).
Where a name gives a salt, the structure may show the parent alone.

Tests used:
[1] = tested on: MD901 cell line; test: Immunoblotting for cleaved caspase 3; type: cell-based, Human; conditions: MD901 (ABC); metformin 2.5mM, Kidrolase 2UI/mL, alone or combined
Procedure: (§1) The cells are washed in cold 1X PBS then lysis is carried out at 4°C (on ice) for 20 minutes, using a mix containing a High Salt buffer (0.4 M NaCl). 25 mM Hepes pH 7.7, 1.5 mM MgCI 2, 0.2 mM EDTA, 1%NP4O), protease and phosphatase inhibitors (20 mM glycerol phosphate, 0.2 mM Na3VO4, 10mM PNPP, 2 mM DTT, […] and an inhibitor cocktail from Boehringer Company). Whole cell extracts are centrifuged also at 4°C for 10 minutes at 13 000 rpm, the supernatant is transferred to an Eppendorf tube and the proteins are dosed using a protein kit assay (Bio-Rad) and stored at - 80°C. Immunoblotting was performed as previously reported (Authier H et al, 2014). Cleaved caspase 3 and β-actin antibodies are from Cell Signaling Technologies and Sigma, respectively.

[2] = tested on: OCI-LY19 cell line; test: Immunoblotting for cleaved caspase 3; type: cell-based, Human; conditions: OCI-LY19 (GCB); metformin 2.5mM, Kidrolase 2UI/mL, alone or combined
Procedure: as §1

## CN(C)C(=N)N=C(N)N [metformin, Metformin hydrochloride]
[1]
  activation of caspase 3 (cleaved caspase 3): not to barely detectable
[2]
  activation of caspase 3 (cleaved caspase 3): not to barely detectable
